SMILES strings stand for the structures. A value given as a limit tells only on which side of the number the result lay.

T1 sequence (Q8NER1 whole entry): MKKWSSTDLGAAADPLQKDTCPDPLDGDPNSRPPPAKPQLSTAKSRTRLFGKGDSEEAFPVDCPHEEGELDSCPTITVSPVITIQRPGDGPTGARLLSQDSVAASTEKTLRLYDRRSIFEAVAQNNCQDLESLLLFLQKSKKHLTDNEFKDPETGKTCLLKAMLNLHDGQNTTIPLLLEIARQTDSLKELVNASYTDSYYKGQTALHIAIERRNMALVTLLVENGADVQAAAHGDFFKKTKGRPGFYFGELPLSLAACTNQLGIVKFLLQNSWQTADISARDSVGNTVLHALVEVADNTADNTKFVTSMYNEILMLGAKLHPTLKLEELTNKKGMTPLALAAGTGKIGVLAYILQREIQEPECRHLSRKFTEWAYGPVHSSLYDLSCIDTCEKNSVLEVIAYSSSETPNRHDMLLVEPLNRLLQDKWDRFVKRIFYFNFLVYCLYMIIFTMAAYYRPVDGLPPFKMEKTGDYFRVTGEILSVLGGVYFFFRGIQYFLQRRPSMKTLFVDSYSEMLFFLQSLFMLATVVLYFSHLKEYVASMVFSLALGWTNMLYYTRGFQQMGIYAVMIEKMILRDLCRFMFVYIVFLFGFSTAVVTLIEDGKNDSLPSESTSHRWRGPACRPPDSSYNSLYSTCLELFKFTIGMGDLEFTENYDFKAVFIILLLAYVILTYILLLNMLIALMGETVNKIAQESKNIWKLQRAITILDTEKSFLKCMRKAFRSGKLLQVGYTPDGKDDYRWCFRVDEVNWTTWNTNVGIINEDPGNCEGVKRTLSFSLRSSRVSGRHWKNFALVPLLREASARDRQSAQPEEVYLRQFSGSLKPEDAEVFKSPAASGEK

One assay has as its target T1, human capsaicin receptor (Homo sapiens, UniProt Q8NER1).
T1 construct: pBK-CMV expression construct encoding the full length human capsaicin receptor; expressed in transfected cells
In words: Calcium mobilization assay, determination of antagonist activity (Example 6). The format is cell-based. As to conditions: Table II; IC50 determined as described in Example 6. The gist of the method:
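HEK293 clonal lines stably expressing full-length human capsaicin receptor, loaded with Fluo-3 AM in KRH buffer pH 7.4, 1–2 h at 37 °C. Compounds (1–5 μM final) preincubated 0.5–6 h at room temperature, then capsaicin at its EC50 added. FLIPR/Fluoroskan calcium signal; IC50 as 50% decrease of capsaicin response.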
(Calcium assays in cells follow changes in intracellular calcium, usually with a dye or a luminescent sensor.)
Take `CC(C)Oc1cccc(-c2cc(N3CCN(c4ncccc4Cl)C[C@H]3C)nc(N3CCOCC3)n2)c1` [Example 544, 4-[4-[(2R)-4-(3 chloropyridin-2-yl)-2-methylpiperazin-1-yl]-6-(3-isopropoxyphenyl)pyrimidin-2-yl]morpholine]: the IC50 is not above 1000 nM.
Still for that read-out and setting: the figure for `C[C@@H]1CN(c2ncccc2C#N)CCN1c1cc(-c2ccc(F)cc2)nc(N2CCOCC2)n1` [Example 486, 2-{(3R)-4-[6-(4-fluorophenyl)-2-morpholin-4-ylpyrimidin-4-yl]-3-methylpiperazin-1-yl}nicotinonitrile] is not above 1000 nM; for `Fc1ccc(-c2nc(N3CCOCC3)nc(N3CCN(c4ccccn4)CC3)n2)c(F)c1` [Example 423, 2-(2,4-difluorophenyl)-4-morpholin-4-yl-6-(4-pyridin-2-ylpiperazin-1-yl)-1,3,5-triazine] it is not above 1000 nM; for `C=CCN1CCN(c2nc(-c3ccc(F)cc3)nc(N3CCN(c4ncccc4C(F)(F)F)CC3)n2)CC1` [Example 446, 2-(4-allylpiperazin-1-yl)-4-(4-fluorophenyl)-6-{4-[3-(trifluoromethyl)pyridin-2-yl]piperazin-1-yl}-1,3,5-triazine] it is not above 1000 nM.
Still for that read-out and setting: the figure for `CCc1cccc(-c2cc(N3CCN(c4ncccc4C(F)(F)F)C[C@H]3C)nc(N3CCOCC3)n2)c1` [Example 516, 4-(4-(3-ethylphenyl)-6-{(2R)-2-methyl-4-[3-(trifluoromethyl)pyridin-2-yl]piperazin-1-yl}pyrimidin-2-yl)morpholine] is not above 1000 nM; for `COc1cccc(-c2cc(N3CCN(c4ncccc4C)C[C@H]3C)nc(N3CCOCC3)n2)c1` [Example 524, 4-{4-(3-methoxyphenyl)-6-[(2R)-2-methyl-4-(3-methylpyridin-2-yl)piperazin-1-yl]pyrimidin-2-yl}morpholine] it is not above 1000 nM.

Still in this assay, the particulars now being: Table II; IC50 determined as described in Example 6 (antagonist activity, calcium mobilization).
For the compound `C[C@@H]1CN(c2nccnc2Cl)CCN1c1cc(-c2ccc(F)c(Cl)c2)nc(N2CCOC[C@@H]2C)n1` [Example 1003, (3S)-4-{4-(3-chloro-4-fluorophenyl)-6-[(2R)-4-(3-chloropyrazin-2-yl)-2-methylpiperazin-1-yl]pyrimidin-2-yl}-3-methylmorpholine], the IC50 is not above 1000 nM.
On to `CC1CCCN1c1nc(-c2ccc(F)c(Cl)c2)cc(N2CCN(c3ncc(Br)cn3)CC2)n1` (centres unmarked) [Example 1002, 4-[4-(5-bromopyrimidin-2-yl)piperazin-1-yl]-6-(3-chloro-4-fluorophenyl)-2-(2-methylpyrrolidin-1-yl)pyrimidine], for which the IC50 is not above 1000 nM.

Still in this assay, the particulars now being: Table II; determined as described in Example 6 (antagonist activity); "*" = 1 micromolar or less.
In the case of `CC(C)c1cc(-c2cc(N3CCN(c4ncccc4C(F)(F)F)CC3)nc(N3CCCC3C)n2)ccn1` (centres unmarked) [Example 796, 4-(2-isopropylpyridin-4-yl)-2-(2-methylpyrrolidin-1-yl)-6-{4-[3-(trifluoromethyl)pyridin-2-yl]piperazin-1-yl}pyrimidine], the IC50 is not above 1000 nM.
The same measure, in the same setting: the figure for `CC1CN(c2nccnc2Cl)CCN1c1nc(-c2ccc(F)c(Cl)c2)cc(N2CCC[C@H]2C)n1` (stereo in doubt) [Example 943, 4-(3-chloro-4-fluorophenyl)-2-[(2R)-4-(3-chloropyrazin-2-yl)-2-methylpiperazin-1-yl]-6-[(2R)-2-methylpyrrolidin-1-yl]pyrimidine] is not above 1000 nM; for `Cc1ccc(-c2cc(N3CCN(c4ncccc4Cl)C[C@H]3C)nc(N3CCCC3C)n2)cc1C` (stereo partly drawn) [Example 808, 4-[(2R)-4-(3-chloropyridin-2-yl)-2-methylpiperazin-1-yl]-6-(3,4-dimethylphenyl)-2-(2-methylpyrrolidin-1-yl)pyrimidine] it is not above 1000 nM; for `CC(=O)c1ccc(-c2cc(N3CCN(c4ncccc4Cl)C[C@H]3C)nc(N3CCCC3)n2)cc1` [Example 856, 1-(4-{6-[(2R)-4-(3-chloropyridin-2-yl)-2-methylpiperazin-1-yl]-2-pyrrolidin-1-ylpyrimidin-4-yl)phenyl)ethanone] it is not above 1000 nM.
For the compound `COc1ccc(Cl)c(N2CCN(c3cc(-c4ccc(F)c(Cl)c4)nc(N4CCCC4C)n3)CC2)n1` (centres unmarked) [Example 918, 4-(3-chloro-4-fluorophenyl)-6-[4-(3-chloro-6-methoxypyridin-2-yl)piperazin-1-yl]-2-(2-methylpyrrolidin-1-yl)pyrimidine], the IC50 is not above 1000 nM.
For the compound `C[C@H]1CN(c2nccnc2Cl)CCN1c1cc(-c2ccc(F)c(F)c2)nc(N2CCOCC2)n1` (stereo in doubt) [Example 939, 4-[4-[4-(3-chloropyrazin-2-yl)-2-methylpiperazin-1-yl]-6-(3,4-difluorophenyl)pyrimidin-2-yl]morpholine], the IC50 was not above 1000 nM.
As to `[O-][n+]1ccc(-c2nc(-c3ccc(F)c(Cl)c3)cc(N3CCN(c4ncccc4C(F)(F)F)CC3)n2)cc1` [Example 813, 4-(3-chloro-4-fluorophenyl)-2-(1-oxidopyridin-4-yl)-6-{4-[3-(trifluoromethyl)pyridin-2-yl]piperazin-1-nlyl}pyrimidine], the IC50 was not above 1000 nM.
`CCCN1CCN(c2nc(-c3ccc(F)c(Cl)c3)cc(N3CCN(c4ncccc4Cl)C[C@H]3C)n2)CC1` [Example 779, 4-(3-chloro-4-fluorophenyl)-6-[(2R)-4-(3-chloropyridin-2-yl)-2-methylpiperazin-1-yl]-2-(4-propylpiperazin-1-yl)pyrimidine]: the half-inhibitory concentration (IC50) was not above 1000 nM.
Same read-out and setting: as for `Cc1ccc(C)n1-c1nc(-c2ccc(C#N)cc2)cc(N2CCN(c3ncccc3C(F)(F)F)CC2)n1` [Example 876, 4-(2-(2,5-dimethyl-1H-pyrrol-1-yl)-6-{4-[3-(trifluoromethyl)pyridin-2-yl]piperazin-1-yl}pyrimidin-4-yl)benzonitrie], the figure is not above 1000 nM.

Still in this assay, the particulars now being: Table II; determined as described in Example 6; class symbol.
As for `CCc1ccccc1-c1nc(N2CCOCC2)nc(N2CCN(c3ccccn3)CC2)n1` [Example 274, 2-(2-ethylphenyl)-4-morpholin-4-yl-6-(4-pyridin-2-ylpiperazin-1-yl)-1,3,5-triazine], the 50% inhibitory concentration (IC50) was not above 1000 nM.
In the case of `CC1CN(c2nc(-c3ccc(F)c(Cl)c3)nc(N3CCN(c4ncccc4C(F)(F)F)CC3)n2)CC(C)O1` (centres unmarked) [Example 266, 2-(3-chloro-4-fluorophenyl)-4-(2,6-dimethylmorpholin-4-yl)-6-{4-[3-(trifluoromethyl)pyridin-2-yl]piperazin-1-yl}-1,3,5-triazine], the IC50 was not above 1000 nM.

Still in this assay, the particulars now being: determined as described in Example 6 (calcium mobilization, antagonist activity); Table II.
For `Fc1ccc(-c2cc(N3CCN(c4ncccc4C(F)(F)F)CC3)nc(NC3CCCC3)n2)cc1Cl` [Example 693, 4-(3-chloro-4-fluorophenyl)-N-cyclopentyl-6-{4-[3-(trifluoromethyl)pyridin-2-yl]piperazin-1-yl}pyrimidin-2-amine], the IC50 was not above 1000 nM.
On the same count and under the same terms, the figure for `Cc1cc(-c2cc(N3CCN(c4ncccc4C(F)(F)F)CC3)nc(N3C(C)CCC3C)n2)ccc1F` (centres unmarked) [Example 677, 2-(2,5-dimethylpyrrolidin-1-yl)-4-(4-fluoro-3-methylphenyl)-6-{4-[3-(trifluoromethyl)pyridin-2-yl]piperazin-1-yl}pyrimidine] is not above 1000 nM; for `C[C@H](Nc1nc(-c2ccc(F)c(Cl)c2)cc(N2CCN(c3ncccc3C(F)(F)F)CC2)n1)C(=O)O` [Example 620, N-(4-(3-chloro-4-fluorophenyl)-6-{4-[3-(trifluoromethyl)pyridin-2-yl]piperazin-1-yl}pyrimidin-2-yl)alanine] it is not above 1000 nM; for `CN(C)C(=O)[C@@H]1CCCN1c1nc(-c2ccc(F)c(Cl)c2)cc(N2CCN(c3ncccc3C(F)(F)F)CC2)n1` [Example 711, 1-(4-(3-chloro-4-fluorophenyl)-6-{4-[3-(trifluoromethyl)pyridin-2-yl]piperazin-1-yl}pyrimidin-2-yl)-N,N-dimethyl-L-prolinamide] it is not above 1000 nM.
Same read-out and setting: as for `Cc1cc(-c2cc(N3CCN(c4ncccc4Cl)CC3)nc(N3CCCC3)n2)ccc1F` [Example 697, 4-[4-(3-chloropyridin-2-yl)piperazin-1-yl]-6-(4-fluoro-3-methylphenyl)-2-pyrrolidin-1-ylpyrimidine], the figure is not above 1000 nM; as for `CC1CCCN1c1nc(-c2ccc(F)c(F)c2)cc(N2CCN(c3ncccc3C(F)(F)F)CC2)n1` (centres unmarked) [Example 704, 4-(3,4-difluorophenyl)-2-(2-methylpyrrolidin-1-yl)-6-{4-[3-(trifluoromethyl)pyridin-2-yl]piperazin-1-yl}pyrimidine], not above 1000 nM; as for `CNC[C@@H]1CCCN1c1nc(-c2ccc(F)c(Cl)c2)cc(N2CCN(c3ncccc3C(F)(F)F)CC2)n1` [Example 694, 1-[(2S)-1-(4-(3-chloro-4-fluorophenyl)-6-{4-[3-(trifluoromethyl)pyridin-2-yl]piperazin-1-yl}pyrimidin-2-yl)pyrrolidin-2-yl]-N-methylmethanamine], not above 1000 nM.
Same read-out and setting: the figure for `CC1CCN1c1nc(-c2ccc(F)c(Cl)c2)cc(N2CCN(c3ncccc3C(F)(F)F)CC2)n1` (centres unmarked) [Example 746, 4-(3-ohloro-4-fluorophenyl)-2-(2-methylazetidin-1-yl)-6-{4-[3-(trifluoromethyl)pyridin-2-yl]piperazin-1-yl}pyrimidine] is not above 1000 nM; for `CC1CN(C)CCN1c1nc(-c2ccc(F)c(Cl)c2)cc(N2CCN(c3ncccc3C(F)(F)F)CC2)n1` (centres unmarked) [Example 630, 4-(3-chloro-4-fluorophenyl)-2-(2,4-dimethylpiperazin-1-yl)-6-{4-[3-(trifluoromethyl)pyridin-2-yl]piperazin-1-yl}pyrimidine] it is not above 1000 nM; for `CC1(C)CCCN1c1nc(-c2ccc(F)c(Cl)c2)cc(N2CCN(c3ncccc3C(F)(F)F)CC2)n1` [Example 699, 4-(3-chloro-4-fluorophenyl)-2-(2,2-dimethylpyrrolidin-1-yl)-6-{4-[3-(trifluoromethyl)pyridin-2-yl]piperazin-1-yl}pyrimidine] it is not above 1000 nM.

As a reminder, the IC50 is the point on the concentration scale where inhibition reaches its midpoint.
